According to paper PMC4114247 (Cancer research, 2009):
Entries after “also recorded” stand apart in the source; their conditions may differ.

Key:
PC3 PIP (PSMA +) tumors = experiment: SPECT/CT imaging, PC3 PIP; details: 2 hr after injection
[1] = target: LNCaP cells (PSMA positive) (Homo sapiens, UniProt Q04609); experiment: Direct binding to LNCaP cells
[2] = tested on: PC3 cells (PSMA negative); experiment: Direct binding to PC3 cells; details: 3 nM radioligand, 1 hour; PC3 cells lack PSMA
[3] = tested on: NCr nude mice bearing LNCaP xenografts; experiment: Mouse tissue distribution, LNCaP xenografts; format: in vivo
[4] = tested on: mice bearing LNCaP xenografts; experiment: SPECT/CT imaging, LNCaP xenografts; format: in vivo, mouse; details: 4 hr after injection
LNCaP cells = experiment: Internalization into LNCaP cells; format: cell-based, human; details: 100 nM, 0–2 hours
[5] = Stability in liver microsomes; format: in vitro ADME; details: data not shown
[6] = Stability in blood plasma; format: in vitro ADME; details: data not shown
[7] = tested on: NCr-nu/nu mice bearing PC3 xenografts; experiment: Mouse tissue distribution, PC3 xenografts; format: in vivo; details: PSMA deficient PC3 xenografts
[8] = co-injected with 50 mg/kg PMPA, 2 hours
[9] = male, athymic NCr-nu/nu, mouse, in vivo
[10] = male, athymic NCr-nu/nu, mouse, in vivo, 0.25 h
[11] = male, athymic NCr-nu/nu, mouse, in vivo, 1 h
[12] = male, athymic NCr-nu/nu, mouse, in vivo, 2 h
[13] = male, athymic NCr-nu/nu, mouse, in vivo, 4 h
[14] = male, athymic NCr-nu/nu, mouse, in vivo, 8 h
[15] = male, athymic NCr-nu/nu, mouse, in vivo, 24 h

LNCaP cells (PSMA positive), sequence (Q04609 whole entry): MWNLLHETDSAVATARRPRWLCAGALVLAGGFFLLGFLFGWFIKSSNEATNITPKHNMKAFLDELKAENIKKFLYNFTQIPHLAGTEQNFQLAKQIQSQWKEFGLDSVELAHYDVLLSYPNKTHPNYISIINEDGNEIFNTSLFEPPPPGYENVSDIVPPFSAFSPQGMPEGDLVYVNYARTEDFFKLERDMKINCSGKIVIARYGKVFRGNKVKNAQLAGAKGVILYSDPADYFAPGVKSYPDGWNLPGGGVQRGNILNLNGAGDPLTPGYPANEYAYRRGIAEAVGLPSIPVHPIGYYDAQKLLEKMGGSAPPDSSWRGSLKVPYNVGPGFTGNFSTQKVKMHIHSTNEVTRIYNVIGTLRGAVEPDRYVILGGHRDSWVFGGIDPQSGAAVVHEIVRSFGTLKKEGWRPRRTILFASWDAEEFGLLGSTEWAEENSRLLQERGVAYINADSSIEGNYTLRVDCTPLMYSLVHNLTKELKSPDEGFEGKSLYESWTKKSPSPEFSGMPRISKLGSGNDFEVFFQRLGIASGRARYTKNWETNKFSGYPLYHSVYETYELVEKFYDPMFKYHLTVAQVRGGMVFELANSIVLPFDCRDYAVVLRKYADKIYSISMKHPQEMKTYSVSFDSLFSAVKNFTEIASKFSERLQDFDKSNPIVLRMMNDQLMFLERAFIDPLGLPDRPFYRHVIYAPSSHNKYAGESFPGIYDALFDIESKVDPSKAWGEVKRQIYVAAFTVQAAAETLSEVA

O=C(O)CC[C@H](NC(=O)N[C@@H](CCCCNC(=O)Nc1ccc(I)cc1)C(=O)O)C(=O)O [[^123I]MIP-1095, (S)-2-(3-((S)-1-carboxy-5-(3-(4-iodophenyl)ureido)pentyl)ureido)pentanedioic acid]
SPECT/CT detection of PC3 PIP (PSMA +) tumors (PC3 PIP (PSMA +) tumors): detected | Binding to LNCaP cells in the presence of non-radiolabeled compound or PMPA ([1]; 3 nM radioligand with 10 µM non-radiolabeled compound or 10 µM PMPA): abolished; also recorded: inhibited | Binding to LNCaP cells ([1]; 3 nM radioligand, 1 hour, room temperature): bound | Binding to PC3 cells [2]: no binding; also recorded: not to the PSMA deficient PC3 cells | Binding to LNCaP tumor xenografts with co-injected PMPA [3, 8]: blocked | Binding to kidneys with co-injected PMPA [3, 8]: blocked | Thyroid content (deiodination) [3, 9]: < 1 % of the total injected dose | tumor:blood ratio [3, 9]: > 100 | tumor:skeletal muscle ratio [3, 9]: > 100 | Ratio Tumor:Blood [3, 10]: 2.10 | Ratio Tumor:Skeletal Muscle [3, 10]: 8.79 | Tissue distribution: Adipose [3, 10]: 4.67 ± 4 %ID/g | Tissue distribution: Blood [3, 10]: 3.75 ± 0.7 %ID/g | Tissue distribution: Bone [3, 10]: 0.9 ± 0.27 %ID/g | Tissue distribution: Brain [3, 10]: 0.17 ± 0.05 %ID/g | Tissue distribution: Heart [3, 10]: 2.76 ± 0.54 %ID/g | Tissue distribution: Kidneys [3, 10]: 52.2 ± 12.2 %ID/g | Tissue distribution: Lg Intestine [3, 10]: 1.59 ± 1.45 %ID/g | Tissue distribution: Liver [3, 10]: 8.66 ± 1.54 %ID/g | Tissue distribution: Lungs [3, 10]: 4.53 ± 0.66 %ID/g | Tissue distribution: Sk.Muscle [3, 10]: 0.9 ± 0.2 %ID/g | Tissue distribution: Sm Intestine [3, 10]: 1.78 ± 1.05 %ID/g | Tissue distribution: Spleen [3, 10]: 9.65 ± 6.44 %ID/g | Tissue distribution: Stomach [3, 10]: 1.77 ± 0.52 %ID/g | Tissue distribution: Testes [3, 10]: 1.11 ± 0.51 %ID/g | Tissue distribution: Tumor (LNCaP xenograft) [3, 10]: 7.9 ± 2.43 %ID/g | Ratio Tumor:Blood [3, 11]: 10.6 | Ratio Tumor:Skeletal Muscle [3, 11]: 49.3 | Tissue distribution: Adipose [3, 11]: 2.34 ± 0.48 %ID/g | Tissue distribution: Blood [3, 11]: 1.95 ± 0.23 %ID/g | Tissue distribution: Bone [3, 11]: 0.55 ± 0.04 %ID/g | Tissue distribution: Brain [3, 11]: 0.06 ± 0.03 %ID/g | Tissue distribution: Heart [3, 11]: 1.31 ± 0.22 %ID/g | Tissue distribution: Kidneys [3, 11]: 65.3 ± 7.5 %ID/g | Tissue distribution: Lg Intestine [3, 11]: 0.87 ± 0.38 %ID/g | Tissue distribution: Liver [3, 11]: 11.3 ± 1.3 %ID/g | Tissue distribution: Lungs [3, 11]: 3.22 ± 0.68 %ID/g | Tissue distribution: Sk.Muscle [3, 11]: 0.42 ± 0.03 %ID/g | Tissue distribution: Sm Intestine [3, 11]: 4.4 ± 0.55 %ID/g | Tissue distribution: Spleen [3, 11]: 4.57 ± 0.77 %ID/g | Tissue distribution: Stomach [3, 11]: 3.02 ± 0.47 %ID/g | Tissue distribution: Testes [3, 11]: 0.86 ± 0.18 %ID/g | Tissue distribution: Tumor (LNCaP xenograft) [3, 11]: 20.7 ± 5.8 %ID/g | Ratio Tumor:Blood [3, 12]: 24.3 | Ratio Tumor:Skeletal Muscle [3, 12]: 80.8 | Tissue distribution: Adipose [3, 12]: 1.68 ± 1.15 %ID/g | Tissue distribution: Blood [3, 12]: 1.12 ± 0.48 %ID/g | Tissue distribution: Bone [3, 12]: 0.36 ± 0.11 %ID/g | Tissue distribution: Brain [3, 12]: 0.06 ± 0.02 %ID/g | Tissue distribution: Heart [3, 12]: 0.78 ± 0.28 %ID/g | Tissue distribution: Kidneys [3, 12]: 88.7 ± 23.8 %ID/g | Tissue distribution: Lg Intestine [3, 12]: 4 ± 2.82 %ID/g | Tissue distribution: Liver [3, 12]: 9.94 ± 2.53 %ID/g | Tissue distribution: Lungs [3, 12]: 2.3 ± 1.02 %ID/g | Tissue distribution: Sk.Muscle [3, 12]: 0.34 ± 0.17 %ID/g | Tissue distribution: Sm Intestine [3, 12]: 4.67 ± 0.86 %ID/g | Tissue distribution: Spleen [3, 12]: 3.73 ± 1.46 %ID/g | Tissue distribution: Stomach [3, 12]: 2.33 ± 1.79 %ID/g | Tissue distribution: Testes [3, 12]: 1.27 ± 0.31 %ID/g | Tissue distribution: Tumor (LNCaP xenograft) [3, 12]: 27.3 ± 3.4 %ID/g | Ratio Tumor:Blood [3, 13]: 40.6 | Ratio Tumor:Skeletal Muscle [3, 13]: 133 | Tissue distribution: Adipose [3, 13]: 0.86 ± 0.43 %ID/g | Tissue distribution: Blood [3, 13]: 0.84 ± 0.23 %ID/g | Tissue distribution: Bone [3, 13]: 0.25 ± 0.04 %ID/g | Tissue distribution: Brain [3, 13]: 0.44 ± 0.91 %ID/g | Tissue distribution: Heart [3, 13]: 0.53 ± 0.09 %ID/g | Tissue distribution: Kidneys [3, 13]: 77.5 ± 16.6 %ID/g | Tissue distribution: Lg Intestine [3, 13]: 7.55 ± 7.69 %ID/g | Tissue distribution: Liver [3, 13]: 7.82 ± 1.01 %ID/g | Tissue distribution: Lungs [3, 13]: 1.6 ± 0.53 %ID/g | Tissue distribution: Sm Intestine [3, 13]: 6.64 ± 3.19 %ID/g | Tissue distribution: Spleen [3, 13]: 2.06 ± 0.63 %ID/g | Tissue distribution: Stomach [3, 13]: 4.09 ± 1.36 %ID/g | Tissue distribution: Testes [3, 13]: 0.84 ± 0.18 %ID/g | Ratio Tumor:Blood [3, 14]: 57.5 | Ratio Tumor:Skeletal Muscle [3, 14]: 121 | Tissue distribution: Adipose [3, 14]: 2.63 ± 4.66 %ID/g | Tissue distribution: Blood [3, 14]: 0.49 ± 0.21 %ID/g | Tissue distribution: Bone [3, 14]: 0.28 ± 0.13 %ID/g | Tissue distribution: Brain [3, 14]: 0.07 ± 0.02 %ID/g | Tissue distribution: Heart [3, 14]: 0.38 ± 0.12 %ID/g | Tissue distribution: Kidneys [3, 14]: 54.8 ± 19.1 %ID/g | Tissue distribution: Lg Intestine [3, 14]: 12.28 ± 5.35 %ID/g | Tissue distribution: Liver [3, 14]: 3.79 ± 0.87 %ID/g | Tissue distribution: Lungs [3, 14]: 1.53 ± 1 %ID/g | Tissue distribution: Sk.Muscle [3, 14]: 0.23 ± 0.13 %ID/g | Tissue distribution: Sm Intestine [3, 14]: 3.66 ± 0.9 %ID/g | Tissue distribution: Spleen [3, 14]: 1.34 ± 0.63 %ID/g | Tissue distribution: Stomach [3, 14]: 4.43 ± 2.28 %ID/g | Tissue distribution: Testes [3, 14]: 0.6 ± 0.12 %ID/g | Tissue distribution: Tumor (LNCaP xenograft) [3, 14]: 28.1 ± 12.8 %ID/g | Ratio Tumor:Blood [3, 15]: 174 | Ratio Tumor:Skeletal Muscle [3, 15]: 304 | Tissue distribution: Adipose [3, 15]: 0.52 ± 0.25 %ID/g | Tissue distribution: Blood [3, 15]: 0.17 ± 0.1 %ID/g | Tissue distribution: Bone [3, 15]: 0.27 ± 0.19 %ID/g | Tissue distribution: Brain [3, 15]: 0.03 ± 0.01 %ID/g | Tissue distribution: Heart [3, 15]: 0.15 ± 0.08 %ID/g | Tissue distribution: Kidneys [3, 15]: 27 ± 26.2 %ID/g | Tissue distribution: Lg Intestine [3, 15]: 4.49 ± 3.09 %ID/g | Tissue distribution: Liver [3, 15]: 1.31 ± 0.63 %ID/g | Tissue distribution: Lungs [3, 15]: 0.55 ± 0.42 %ID/g | Tissue distribution: Sk.Muscle [3, 15]: 0.1 ± 0.04 %ID/g | Tissue distribution: Sm Intestine [3, 15]: 0.76 ± 0.48 %ID/g | Tissue distribution: Spleen [3, 15]: 0.45 ± 0.29 %ID/g | Tissue distribution: Stomach [3, 15]: 1.15 ± 1.2 %ID/g | Tissue distribution: Testes [3, 15]: 0.27 ± 0.23 %ID/g | Tissue distribution: Tumor (LNCaP xenograft) [3, 15]: 29.1 ± 15.1 %ID/g | Blood-brain barrier crossing ([3]; mouse, in vivo): do not cross the blood-brain barrier | Route of clearance ([3]; mouse, in vivo): by both urinary and hepatobiliary routes | SPECT/CT uptake in kidney and LNCaP tumor [4]: high uptake | Internalization into LNCaP cells (LNCaP cells; 4 °C): but not at 4 °C | Internalization into LNCaP cells (LNCaP cells; 37 °C): internalized; also recorded: time dependent increase in radioactivity associated with the cellular pellet | Stability in liver microsomes [5]: stable | Stability in blood plasma [6]: stable | Localization to PC3 tumors [7]: not to the PSMA deficient PC3 tumors
